For assay [1], the target named is T1, ctPrp43–Pfa1(gp) complex (Thermochaetoides thermophila, UniProt G0RY84).
T1 construct: gene CTHT_0005780; Prp43 with C-terminal His6 or Strep tag plus isolated G-patch motif of Pfa1; both from E. coli Rosetta II as GST fusions; borders in SI; with G-patch protein Pfa1 (G-patch motif)
The experiment in a line: coupled ATPase assay, NADH absorption, Michaelis-Menten titration. It is filed as biochemical. The conditions noted are these: with Pfa1(gp), no ssRNA. The text has this: coupled ATPase assay, NADH absorption, Michaelis-Menten titration on ctPrp43–Pfa1(gp) complex | showing the stimulation of Prp43 ATPase activity by Pfa1(gp) and ssRNA

In assay [2] the target is T2, ctPrp43 (Prp43) (Thermochaetoides thermophila, UniProt G0RY84).
T2 construct: gene CTHT_0005780; expressed in E. coli Rosetta II as N-terminal GST fusion with C-terminal His6 or Strep tag; SEC purified; borders in SI
T2 sequence (G0RY84 entry or part of it): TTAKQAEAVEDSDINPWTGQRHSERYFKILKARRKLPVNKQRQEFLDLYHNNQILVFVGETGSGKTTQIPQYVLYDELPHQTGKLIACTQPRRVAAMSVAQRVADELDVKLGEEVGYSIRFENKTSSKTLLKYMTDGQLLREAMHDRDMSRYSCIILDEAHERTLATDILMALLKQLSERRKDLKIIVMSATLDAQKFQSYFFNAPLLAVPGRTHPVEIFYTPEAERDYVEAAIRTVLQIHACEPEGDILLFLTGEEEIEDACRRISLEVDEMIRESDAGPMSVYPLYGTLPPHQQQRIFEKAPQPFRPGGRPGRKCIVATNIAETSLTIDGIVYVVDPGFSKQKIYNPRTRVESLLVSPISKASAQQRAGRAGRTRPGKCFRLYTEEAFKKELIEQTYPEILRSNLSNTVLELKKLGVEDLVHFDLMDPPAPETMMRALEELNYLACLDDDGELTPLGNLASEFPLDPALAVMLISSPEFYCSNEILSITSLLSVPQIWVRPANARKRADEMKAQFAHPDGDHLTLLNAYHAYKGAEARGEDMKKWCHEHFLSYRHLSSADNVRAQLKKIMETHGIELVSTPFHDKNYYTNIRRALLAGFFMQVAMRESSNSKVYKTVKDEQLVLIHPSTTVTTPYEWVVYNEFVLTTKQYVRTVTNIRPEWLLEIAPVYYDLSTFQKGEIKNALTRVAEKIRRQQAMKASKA
Described as above. It is filed as biochemical. The settings on record: no Pfa1(gp), no ssRNA. The text has this:
coupled ATPase assay, NADH absorption, Michaelis-Menten titration on ctPrp43 (Prp43) | Michaelis–Menten titration and table with ATP turnover numbers (kcat) and dissociation constants (KM)

T1 sequence (G0RY84 entry or part of it, one chain of several): as the sequence (G0RY84 entry or part of it) above

For `Nc1ncnc2c1ncn2[C@@H]1O[C@H](COP(=O)(O)OP(=O)(O)OP(=O)(O)O)[C@@H](O)[C@H]1O` [ATP], the Km (commonly the substrate concentration at which the rate is half of its maximum) stood at 4.5 ± 0.3 µM in assay [1] and 29.5 ± 6 µM in assay [2].

These data come from PMC9860317, “Regulation of the DEAH/RHA helicase Prp43 by the G-patch factor Pfa1” (Proceedings of the National Academy of Sciences of the …, 2022).
